Test results: article PMC10958501, “4-Oxypiperidine Ethers as Multiple Targeting Ligands at Histamine H3 Receptors and Cholinesterases” (ACS Chemical Neuroscience, 2024)
Where two headings read alike, the source gives them in different places.

Legend:
eeAChE = biological target: T1, eeAChE (Electrophorus electricus, UniProt O42275); experiment: biochemical; details: for inhibition at 10 µM: read-out: eeAChE % inh. (10μM) ± SD; for IC50: read-out: eeAChE IC50 (μM) ± sem
T1 construct: purchased Sigma–Aldrich (Steinheim, Germany)
T1 sequence (O42275 24-633): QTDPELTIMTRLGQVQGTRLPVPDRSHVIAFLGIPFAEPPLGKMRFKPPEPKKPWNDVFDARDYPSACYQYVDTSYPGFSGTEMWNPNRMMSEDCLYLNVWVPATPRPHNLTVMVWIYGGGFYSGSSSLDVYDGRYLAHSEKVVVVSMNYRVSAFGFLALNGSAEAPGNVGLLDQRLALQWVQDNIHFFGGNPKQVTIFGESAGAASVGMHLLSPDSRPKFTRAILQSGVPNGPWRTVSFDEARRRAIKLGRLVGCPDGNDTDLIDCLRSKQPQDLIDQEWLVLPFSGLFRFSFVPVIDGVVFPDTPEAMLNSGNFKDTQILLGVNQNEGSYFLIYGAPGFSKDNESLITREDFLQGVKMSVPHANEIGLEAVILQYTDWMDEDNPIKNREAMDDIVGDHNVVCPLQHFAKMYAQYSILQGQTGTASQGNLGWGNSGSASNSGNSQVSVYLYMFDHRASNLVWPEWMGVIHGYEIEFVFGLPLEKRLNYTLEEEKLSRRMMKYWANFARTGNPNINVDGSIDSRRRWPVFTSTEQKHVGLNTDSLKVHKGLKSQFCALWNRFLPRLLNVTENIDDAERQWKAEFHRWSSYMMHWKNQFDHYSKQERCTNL

gpH3R = biological target: T2, gpH3R (Cavia porcellus, UniProt Q9JI35); experiment: Ex vivo gpH3R screening on isolated guinea pig ileum electrically stimulated to contraction
T2 construct: isolated guinea pig ileum electrically stimulated to contraction; from tissue; host or cells: distal ileum of male guinea pigs
T2 sequence (Q9JI35 whole entry): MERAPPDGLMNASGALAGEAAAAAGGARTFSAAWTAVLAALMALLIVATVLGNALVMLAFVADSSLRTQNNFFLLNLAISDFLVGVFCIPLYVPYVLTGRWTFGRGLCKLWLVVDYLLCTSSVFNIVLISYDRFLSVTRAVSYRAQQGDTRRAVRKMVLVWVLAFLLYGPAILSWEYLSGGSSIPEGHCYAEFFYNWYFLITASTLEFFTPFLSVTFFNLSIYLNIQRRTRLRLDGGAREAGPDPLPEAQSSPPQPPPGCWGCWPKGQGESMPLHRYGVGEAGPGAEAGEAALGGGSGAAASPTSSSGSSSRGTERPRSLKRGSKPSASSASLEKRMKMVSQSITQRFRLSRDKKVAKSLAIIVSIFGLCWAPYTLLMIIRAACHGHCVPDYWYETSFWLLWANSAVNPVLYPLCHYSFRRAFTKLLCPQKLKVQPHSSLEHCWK
Description: All newly synthesized compounds were evaluated ex vivo as H3R antagonists/inverse agonists on guinea pig ileum (gpH3R) stimulated electrically for contraction.[47]
The compounds were tested against H3R by an ex vivo assay using isolated guinea pig ileum electrically stimulated to contraction, according to Vollinga et al.[47] The pA2-values were calculated according to Arunlakshana and Schild.[59] The radioligand-displacement assay was performed in membrane fractions of HEK-293 cells stably expressing hH3R. Cell cultivation and membrane preparation were performed according to Kottke et al.[48] The Ki values were calculated from the IC50 values using the Cheng–Prusoff equation.[60] The statistical calculations were performed on −log(Ki). […] The inhibitory activities toward AChE and BuChE of novel ADS compounds were assessed in a spectrophotometric Ellman’s assay using electric eel AChE (eeAChE) and equine BuChE (eqBuChE).[57] Intracellular cAMP accumulation was measured with a homogeneous TR-FRET immunoassay using the LANCE Ultra cAMP kit (PerkinElmer) and HEK293 cells stably expressing the human histamine H3 receptor.[61] A more detailed description of the biological methods is presented in the Supporting Information.
3. Pharmacological assay results.
3.1. Ex vivo assay for histamine H 3R receptor antagonists on guinea pig ileum.
Male guinea pigs, weighing 300-400 g were euthanized by a blow to the neck. Following this, a 20-30 cm length of the distal ileum, apart from the terminal 5 cm was rapidly removed and […]
USA) (1·10 -6 mol/L). The intraluminal content was rinsed and the isolated intestine was cut into 1.5-2 cm segments. The preparations were mounted between two platinum electrodes […]
and indomethacin (3·10 -7 mol/L).
CO2 mixture and maintained at 37 °C under a constant load of 1.0 g (Hugo Sachs Hebel-Messvorsatz (Tl-2)/HF-modem; Hugo Sachs Elektronik, Hugstetten, Germany) connected to a pen recorder (Kipp & Zonen BD41, Delft, Holland). During an equilibration period of 60 min, the Krebs buffer was changed every 10 min. The preparations were then continuously stimulated at 15-20 V at a frequency of 0.1 Hz for a duration of 0.5 ms, with rectangular-wave electrical pulses (Grass Stimulator S-88; Grass Instruments Co., Quincy, Massachusetts, […]
USA). […] Five minutes before (R)-(−)-α- […]
methylhistamine (RAMH) (Toronto Research Chemicals Inc., North York, Canada), administration, pyrilamine (Sigma-Aldrich, St. Louis, MO, USA) (1·10-5 mol/L concentration in organ bath) was added. The first cumulative concentration-response curve was determined […]
second to fourth curve was measured against increasing antagonist concentration (incubation time 20 min). The pA2-values were calculated according to Arunlakshana and Schild 5.
Statistical analysis was carried out with the Student’s t-test. In all tests, a p<0.05 was […]
considered statistically significant. The pA2 values were compared with the affinity of thioperamide (Sigma-Aldrich, St. Louis, MO, USA). […]

eqBuChE = eqBuChE (Equus caballus, UniProt P81908); experiment: biochemical; details: for inhibition at 10 µM: read-out: eqBuChE % inh. (10 μM) ± SD; for IC50: read-out: eqBuChE IC50 [μM] ± sem
Chain of eqBuChE (P81908 whole entry): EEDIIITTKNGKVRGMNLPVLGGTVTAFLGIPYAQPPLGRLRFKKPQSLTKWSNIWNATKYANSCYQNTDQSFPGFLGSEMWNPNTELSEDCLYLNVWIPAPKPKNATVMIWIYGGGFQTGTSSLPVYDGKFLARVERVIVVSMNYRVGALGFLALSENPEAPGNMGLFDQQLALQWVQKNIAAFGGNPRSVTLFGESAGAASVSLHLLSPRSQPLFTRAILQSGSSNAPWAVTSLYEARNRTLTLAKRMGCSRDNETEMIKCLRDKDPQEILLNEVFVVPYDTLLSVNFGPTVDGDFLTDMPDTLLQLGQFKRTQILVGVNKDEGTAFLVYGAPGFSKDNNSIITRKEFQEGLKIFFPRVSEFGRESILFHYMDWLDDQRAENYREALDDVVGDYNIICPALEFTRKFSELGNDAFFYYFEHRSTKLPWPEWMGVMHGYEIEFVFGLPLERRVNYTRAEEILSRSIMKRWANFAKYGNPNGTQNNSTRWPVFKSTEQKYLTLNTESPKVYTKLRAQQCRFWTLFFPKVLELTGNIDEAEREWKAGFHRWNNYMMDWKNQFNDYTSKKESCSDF

hH3R [1] = biological target: T3, hH3R (Homo sapiens, UniProt Q9Y5N1); experiment: hH3R radioligand displacement assay in membrane fractions of HEK-293 cells; assay type: binding; details: [3H]Nα-methylhistamine displacement, HEK-293 membranes; 95% CI in brackets
T3 construct: expressed in transfected cells; membrane fractions
T3 sequence (Q9Y5N1 whole entry): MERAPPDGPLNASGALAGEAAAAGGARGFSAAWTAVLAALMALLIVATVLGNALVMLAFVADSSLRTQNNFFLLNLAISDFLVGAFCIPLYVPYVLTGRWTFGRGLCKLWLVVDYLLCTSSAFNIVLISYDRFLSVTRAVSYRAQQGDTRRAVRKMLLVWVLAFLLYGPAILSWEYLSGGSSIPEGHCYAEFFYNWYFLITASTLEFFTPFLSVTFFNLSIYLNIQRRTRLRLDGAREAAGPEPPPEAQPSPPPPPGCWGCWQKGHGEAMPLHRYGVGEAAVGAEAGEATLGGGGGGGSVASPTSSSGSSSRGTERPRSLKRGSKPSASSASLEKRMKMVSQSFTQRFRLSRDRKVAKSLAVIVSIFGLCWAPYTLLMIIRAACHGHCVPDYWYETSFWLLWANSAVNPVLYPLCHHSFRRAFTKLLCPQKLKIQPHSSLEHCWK
Description: The compounds were tested against H3R by an ex vivo assay using isolated guinea pig ileum electrically stimulated to contraction, according to Vollinga et al.[47] The pA2-values were calculated according to Arunlakshana and Schild.[59] The radioligand-displacement assay was performed in membrane fractions of HEK-293 cells stably expressing hH3R. Cell cultivation and membrane preparation were performed according to Kottke et al.[48] The Ki values were calculated from the IC50 values using the Cheng–Prusoff equation.[60] The statistical calculations were performed on −log(Ki). The mean values and 95% confidence intervals were transformed to nanomolar concentrations. The inhibitory activities toward AChE and BuChE of novel ADS compounds were assessed in a spectrophotometric Ellman’s assay using electric eel AChE (eeAChE) and equine BuChE (eqBuChE).[57] Intracellular cAMP accumulation was measured with a homogeneous TR-FRET immunoassay using the LANCE Ultra cAMP kit (PerkinElmer) and HEK293 cells stably expressing the human histamine H3 receptor.[61] A more detailed description of the biological methods is presented in the Supporting Information. […]
considered statistically significant. The pA2 values were compared with the affinity of thioperamide (Sigma-Aldrich, St. Louis, MO, USA).
3.2. hH 3R radioligand displacement binding assay.
The radioligand displacement binding assay was performed in membrane fractions of HEK-293 cells stably expressing hH3R. Cell cultivation and membrane preparation was performed according to Kottke et al 6. For the radioligand displacement assay, radioactively labeled […]
assay volume was set to 200 µL. The compounds were tested in several appropriate concentrations between 100 µM and 0.1 nM. Pipetting was partly done by Freedom Evo® (Tecan). Pitolisant was used to determine non-specific binding at a concentration of 10 µM.
The membrane fraction (20 µg/well), test compounds, and radiolabeled ligand were incubated for 90 minutes at 25 °C while shaking. The bound radioligand was separated from the free radioligand by filtration through GF/B filters pre-treated with 0.3 % (m/v) polyethyleneimine using a cell harvester. Radioactivity was determined by liquid scintillation counting using a MicroBeta® Trilux (Perkin Elmer). The data was obtained in duplicates in at least three independent experiments. Non-specific binding was subtracted from the raw data to calculate specific binding values. The evaluation was performed with GraphPad Prism 6.1 (San Diego, CA, USA) using non-linear regression (one-site competition with a logarithmic scale). The Ki values were calculated from the IC50 values using the Cheng-Prusoff equation 7. The statistical calculations were performed on –log(Ki). […]

AChE = details: cited from earlier work
H3R = test system: H3R; design: method as in PMID 29671795, PMID 23957330; details: cited from earlier work
[2] = design: method as in PMID 29671795; details: in vivo; cited from earlier work
hH3R [3] = biological target: T3, hH3R; details: cited from earlier work
BuChE = test system: BuChE; design: method as in PMID 16599255; details: cited from earlier work
[4] = isolated guinea pig ileum, against (R)-(−)-α-methylhistamine, mean of at least three experiments, read-out: gpH3R pA2 ± sem (converted)

| Compound | inhibition at 10 µM (eeAChE) [%] | Kb (gpH3R) [nM] | inhibition at 10 µM (eqBuChE) [%] | IC50 (eqBuChE) [µM] | also measured |
| --- | --- | --- | --- | --- | --- |
| CCCN(C)Cc1ccc2cc(COC3CCN(Cc4cc5ccccc5o4)CC3)ccc2c1 [ADS032, N-((6-(((1-(Benzofuran-2-ylmethyl)piperidin-4-yl)oxy)methyl)naphthalen-2-yl)methyl)-N-methylpropan-1-amine] | 28.1 ± 3.9 | 87.1 | 90.3 ± 0.1 | 1.64 ± 0.074 | Ki (hH3R [1]): 44.1 nM |
| CCCN(C)Cc1ccc(COC2CCN(Cc3cc4ccccc4o3)CC2)cc1 [ADS024, N-(4-(((1-(Benzofuran-2-ylmethyl)piperidin-4-yl)oxy)methyl)benzyl)-N-methylpropan-1-amine] | 36.2 ± 3.6 | 26.9 | 32.2 ± 2.6 |  | Ki (hH3R [1]): 144 nM |
| CCCN(C)Cc1ccc(-c2ccc(COC3CCN(Cc4ccccc4)CC3)cc2)cc1 [ADS029, N-((4′-(((1-Benzylpiperidin-4-yl)oxy)methyl)-[1,1′-biphenyl]-4-yl)methyl)-N-methylpropan-1-amine] | 69 ± 0.5 | 61.7 | 90.8 ± 0.3 | 1.4 ± 0.055 | IC50 (eeAChE): 3.71 ± 0.134 µM |
| CCCN(C)Cc1ccc(COC2CCN(Cc3ccccc3)CC2)cc1 [ADS022, N-(4-(((1-Benzylpiperidin-4-yl)oxy)methyl)benzyl)-N-methylpropan-1-amine] | 61.6 ± 2.8 | 38 | 49.4 ± 1.9 |  | IC50 (eeAChE): 6.89 ± 0.271 µM; Ki (hH3R [1]): 77.1 nM |
| c1cc(-c2ccc(CN3CCCCC3)cc2)ccc1CCN1CCCCC1 [I] |  |  |  |  | IC50 (AChE): 1100 nM |
| CCCN(C)c1ccc(OC2CCN(Cc3ccccc3)CC2)cc1 [ADS021, 4-((1-Benzylpiperidin-4-yl)oxy)-N-methyl-N-propylaniline] | 33.4 ± 1.1 | > 100000 | 95.88 ± 0.2 | 0.559 ± 0.125 |  |
| CCCN(C)Cc1cccc(COC2CCN(Cc3cc4ccccc4o3)CC2)c1 [ADS026, N-(3-(((1-(Benzofuran-2-ylmethyl)piperidin-4-yl)oxy)methyl)benzyl)-N-methylpropan-1-amine] | 5.5 ± 0.6 |  | 55.9 ± 2 |  | Kb (gpH3R; [4]): 93.3 nM |
| CCCN(C)CCCCCOC1CCN(Cc2ccccc2)CC1 [ADS009, 5-((1-benzylpiperidin-4-yl)oxy)-N-methyl-N-propylpentan-1-amine] |  |  |  |  | pA2 (H3R): 7.79 |
| CCCN(C)CCCCCOC1CCN(Cc2cc3ccccc3o2)CC1 [ADS003, 5-((1-(benzofuran-2-ylmethyl)piperidin-4-yl)oxy)-N-methyl-N-propylpentan-1-amine] |  |  |  |  | blood–brain barrier crossing [2]: ability to cross the blood–brain barrier; pA2 (H3R): 8.47 |
| CCCN(C)Cc1ccccc1COC1CCN(Cc2cc3ccccc3o2)CC1 [ADS028, N-(2-(((1-(Benzofuran-2-ylmethyl)piperidin-4-yl)oxy)methyl)benzyl)-N-methylpropan-1-amine] | 2.3 ± 0.3 | 126 | 79.6 ± 0.4 | 2.65 ± 0.055 |  |
| S=C(NC1CCCCC1)N1CCC(c2cnc[nH]2)CC1 [Thioperamide] |  |  |  |  | pA2 (H3R): 8.67 |
| CCCN(C)Cc1ccc(-c2ccc(COC3CCN(Cc4cc5ccccc5o4)CC3)cc2)cc1 [ADS030, N-((4′-(((1-(Benzofuran-2-ylmethyl)piperidin-4-yl)oxy)methyl)-[1,1′-biphenyl]-4-yl)methyl)-N-methylpropan-1-amine] | 31.2 ± 0.5 | 257 | 83.1 ± 0.4 | 1.75 ± 0.077 |  |
| CCCN(C)Cc1cccc(COC2CCN(Cc3ccccc3)CC2)c1 [ADS025, N-(3-(((1-Benzylpiperidin-4-yl)oxy)methyl)benzyl)-N-methylpropan-1-amine] | 53.7 ± 1.9 | 129 | 63.9 ± 1.7 | 6.05 ± 0.16 | IC50 (eeAChE): 9.94 ± 0.64 µM |
| CCCN(C)Cc1ccccc1COC1CCN(Cc2ccccc2)CC1 [ADS027, N-(2-(((1-Benzylpiperidin-4-yl)oxy)methyl)benzyl)-N-methylpropan-1-amine] | 4.8 ± 0.3 | 151 | 64.6 ± 0.9 | 4.31 ± 0.202 |  |
| c1ccc2c(NCc3ccc(CCCN4CCCCC4)cc3)c3c(nc2c1)CCCC3 [III] |  |  |  |  | Ki (hH3R [3]): 0.3 nM; IC50 (BuChE): 8.8 nM; IC50 (AChE): 2.6 nM |
| CCCN(C)c1ccc(OC2CCN(Cc3cc4ccccc4o3)CC2)cc1 [ADS023, 4-((1-(Benzofuran-2-ylmethyl)piperidin-4-yl)oxy)-N-methyl-N-propylaniline] | 40.3 ± 2.8 |  | 43.2 ± 2.1 |  | Kb (gpH3R; [4]): > 100000 nM |
